The text below walks through data of PMC5218480 (PLoS ONE, 2017).

SMILES strings stand for the structures.

For this assay, the system named is MV-4-11 cells. Kind of assay: Gene expression microarray analysis (Affymetrix PrimeView) and GSEA. The class given is cell-based, human. Further details: RFU PODN (11730768_x_at) / Fold change /veh PODN (11730768_x_at) / RFU LINC00158 (11744669_a_at) / Fold change /veh LINC00158 (11744669_a_at) / RFU DUSP10 (11751237_a_at) / Fold change /veh DUSP10 (11751237_a_at) / RFU ID3 (11757404_x_at) / Fold change /veh ID3 (11757404_x_at) / RFU PLEKHG5 (11737974_s_at) / Fold change /veh PLEKHG5 (11737974_s_at) / RFU LRRC4B (11730491_at) / Fold change /veh LRRC4B (11730491_at) / RFU GIMAP4 (11747438_a_at) / Fold change /veh GIMAP4 (11747438_a_at) / RFU KRT8 (11758183_x_at) / Fold change /veh KRT8 (11758183_x_at) / RFU CNN1 (11734310_a_at) / Fold change /veh CNN1 (11734310_a_at) / RFU VPS37D (11726825_at) / Fold change /veh VPS37D (11726825_at) / RFU C10orf10 (11716522_x_at) / Fold change /veh C10orf10 (11716522_x_at) / RFU KIR2DL2 /// KIR2DL4 /// KIR2DL5A /// KIR2DL5B /// KIR2DS1 /// KIR2DS2 /// KIR2DS3 /// KIR2DS4 /// KIR3DL3 /// KIR3DL3 /// KIR3DS1 (11738374_at) / Fold change /veh KIR2DL2 /// KIR2DL4 /// KIR2DL5A /// KIR2DL5B /// KIR2DS1 /// KIR2DS2 /// KIR2DS3 /// KIR2DS4 /// KIR3DL3 /// KIR3DL3 /// KIR3DS1 (11738374_at) / RFU C1QL1 (11718748_at) / Fold change /veh C1QL1 (11718748_at) / RFU TMPRSS4 (11747572_a_at) / Fold change /veh TMPRSS4 (11747572_a_at) / RFU HAMP (11756126_x_at) / Fold change /veh HAMP (11756126_x_at) / RFU RNFT2 (11725882_a_at) / Fold change /veh RNFT2 (11725882_a_at) / RFU NR4A2 (11747474_a_at) / Fold change /veh NR4A2 (11747474_a_at) / RFU ABCC12 (11746883_a_at) / Fold change /veh ABCC12 (11746883_a_at) / RFU TMEM136 (11760407_x_at) / Fold change /veh TMEM136 (11760407_x_at) / RFU CLDN22 /// WWC2 (11732394_at) / Fold change /veh CLDN22 /// WWC2 (11732394_at) / RFU HLA-DPB1 (11760878_x_at) / Fold change /veh HLA-DPB1 (11760878_x_at) / RFU SPINT1 (11716480_a_at) / Fold change /veh SPINT1 (11716480_a_at) / RFU GAP43 (11754022_s_at) / Fold change /veh GAP43 (11754022_s_at) / RFU A4GNT (11735810_at) / Fold change /veh A4GNT (11735810_at) / RFU PRB3 (11715151_x_at) / Fold change /veh PRB3 (11715151_x_at) / RFU TUBB4B (11761932_at) / Fold change /veh TUBB4B (11761932_at) / RFU CAPN14 (11732068_a_at) / Fold change /veh CAPN14 (11732068_a_at) / RFU TMCC2 (11721928_a_at) / Fold change /veh TMCC2 (11721928_a_at) / RFU IRGQ (11745062_a_at) / Fold change /veh IRGQ (11745062_a_at) / RFU FAM174B (11720279_a_at) / Fold change /veh FAM174B (11720279_a_at) / RFU TMPRSS4 (11748680_a_at) / Fold change /veh TMPRSS4 (11748680_a_at) / RFU FAM212B (11763350_a_at) / Fold change /veh FAM212B (11763350_a_at) / RFU PLEKHG5 (11743358_a_at) / Fold change /veh PLEKHG5 (11743358_a_at) / RFU ZSCAN30 (11745921_a_at) / Fold change /veh ZSCAN30 (11745921_a_at) / RFU CMKLR1 (11741424_a_at) / Fold change /veh CMKLR1 (11741424_a_at) / RFU LOC101060620 /// MAPK8IP1 (11723275_at) / Fold change /veh LOC101060620 /// MAPK8IP1 (11723275_at) / RFU SPTSSB (11747773_x_at) / Fold change /veh SPTSSB (11747773_x_at) / RFU PRSS12 (11739890_at) / Fold change /veh PRSS12 (11739890_at) / RFU BIN1 (11741810_x_at) / Fold change /veh BIN1 (11741810_x_at) / RFU WNT11 (11732464_a_at) / Fold change /veh WNT11 (11732464_a_at) / RFU C10orf10 (11716521_a_at) / Fold change /veh C10orf10 (11716521_a_at) / RFU C5orf56 (11738089_at) / Fold change /veh C5orf56 (11738089_at) / RFU CYB561 (11721691_x_at) / Fold change /veh CYB561 (11721691_x_at) / RFU ANKRD19P (11752326_a_at) / Fold change /veh ANKRD19P (11752326_a_at) / RFU OR2T12 /// OR2T33 /// OR2T8 (11738714_s_at) / Fold change /veh OR2T12 /// OR2T33 /// OR2T8 (11738714_s_at) / RFU VCAN (11748164_a_at) / Fold change /veh VCAN (11748164_a_at) / RFU JSRP1 (11732532_at) / Fold change /veh JSRP1 (11732532_at) / RFU KRTAP10-11 (11738290_x_at) / Fold change /veh KRTAP10-11 (11738290_x_at) / RFU MYO3A (11730013_a_at) / Fold change /veh MYO3A (11730013_a_at) / RFU EBF3 (11725865_a_at) / Fold change /veh EBF3 (11725865_a_at) / RFU CAMK2N1 (11719241_x_at) / Fold change /veh CAMK2N1 (11719241_x_at) / RFU C5orf56 (11738088_a_at) / Fold change /veh C5orf56 (11738088_a_at) / RFU OLFML3 (11715873_a_at) / Fold change /veh OLFML3 (11715873_a_at) / RFU LOC100653217 /// NTM (11731650_a_at) / Fold change /veh LOC100653217 /// NTM (11731650_a_at) / RFU MAPK11 (11762145_a_at) / Fold change /veh MAPK11 (11762145_a_at) / RFU FIZ1 (11724087_x_at) / Fold change /veh FIZ1 (11724087_x_at) / RFU OASL (11726364_x_at) / Fold change /veh OASL (11726364_x_at) / RFU SOX15 (11748057_x_at) / Fold change /veh SOX15 (11748057_x_at) / RFU CD79A (11719716_a_at) / Fold change /veh CD79A (11719716_a_at) / RFU HIST1H1D (11736915_at) / Fold change /veh HIST1H1D (11736915_at) / RFU CASKIN2 (11723855_a_at) / Fold change /veh CASKIN2 (11723855_a_at) / RFU LOC730098 (11760151_x_at) / Fold change /veh LOC730098 (11760151_x_at) / RFU OR4N2 (11742367_at) / Fold change /veh OR4N2 (11742367_at) / RFU PRRT2 (11749266_a_at) / Fold change /veh PRRT2 (11749266_a_at) / RFU SNX32 (11753110_a_at) / Fold change /veh SNX32 (11753110_a_at) / RFU CDHR5 (11726645_a_at) / Fold change /veh CDHR5 (11726645_a_at) / RFU RCAN1 (11760418_a_at) / Fold change /veh RCAN1 (11760418_a_at) / RFU FAM167A (11723789_a_at) / Fold change /veh FAM167A (11723789_a_at) / RFU FAM26E (11764081_at) / Fold change /veh FAM26E (11764081_at) / RFU ISYNA1 (11749810_s_at) / Fold change /veh ISYNA1 (11749810_s_at) / RFU ACY1 (11761880_at) / Fold change /veh ACY1 (11761880_at) / RFU 11764098_at / Fold change /veh 11764098_at / RFU SAMD14 (11745864_x_at) / Fold change /veh SAMD14 (11745864_x_at) / RFU NPB (11741838_a_at) / Fold change /veh NPB (11741838_a_at) / RFU TMPRSS6 (11731388_a_at) / Fold change /veh TMPRSS6 (11731388_a_at) / RFU KRTAP10-2 (11738614_at) / Fold change /veh KRTAP10-2 (11738614_at) / RFU ARHGAP8 /// PRR5-ARHGAP8 (11727945_x_at) / Fold change /veh ARHGAP8 /// PRR5-ARHGAP8 (11727945_x_at) / RFU KRTAP5-7 /// NADSYN1 (11734609_at) / Fold change /veh KRTAP5-7 /// NADSYN1 (11734609_at) / RFU RASL12 (11751679_a_at) / Fold change /veh RASL12 (11751679_a_at) / RFU CDKN2B (11736163_a_at) / Fold change /veh CDKN2B (11736163_a_at) / RFU PRF1 (11729649_at) / Fold change /veh PRF1 (11729649_at) / RFU, ZNF638 /// ZNF638-IT1 / Fold change vs veh, ZNF638 /// ZNF638-IT1 / RFU, PANK3 / Fold change vs veh, PANK3 / RFU, SH3YL1 / Fold change vs veh, SH3YL1 / RFU, ZEB2 / Fold change vs veh, ZEB2 / RFU, NRIP1 / Fold change vs veh, NRIP1 / RFU, PTTG1IP / Fold change vs veh, PTTG1IP / RFU, CAPN2 / Fold change vs veh, CAPN2 / RFU, MED14 / Fold change vs veh, MED14 / RFU, SNORA58 / Fold change vs veh, SNORA58 / RFU, C1orf63 / Fold change vs veh, C1orf63 / RFU, LRRFIP1 / Fold change vs veh, LRRFIP1 / RFU, NDUFAF7 / Fold change vs veh, NDUFAF7 / RFU, SLC12A2 / Fold change vs veh, SLC12A2 / RFU, IBTK / Fold change vs veh, IBTK / RFU, ESF1 / Fold change vs veh, ESF1 / Fold change vs veh, TMEM50B / RFU, TAOK1 / Fold change vs veh, TAOK1 / RFU, ACBD3 / Fold change vs veh, ACBD3 / RFU, TMA16 / Fold change vs veh, TMA16 / RFU, RWDD3 / Fold change vs veh, RWDD3 / RFU, BCAT1 / Fold change vs veh, BCAT1 / RFU, EDEM3 / Fold change vs veh, EDEM3 / RFU, TMEM33 / Fold change vs veh, TMEM33 / RFU, WDR75 / Fold change vs veh, WDR75 / RFU, AHCTF1 / Fold change vs veh, AHCTF1 / RFU, TFRC / Fold change vs veh, TFRC / RFU, ZDHHC17 / Fold change vs veh, ZDHHC17 / RFU, NOM1 / Fold change vs veh, NOM1 / RFU, ARL8B / Fold change vs veh, ARL8B / RFU, ZBTB11 / Fold change vs veh, ZBTB11 / RFU, TAMM41 / Fold change vs veh, TAMM41 / RFU, KIAA1704 /// LOC100996395 / Fold change vs veh, KIAA1704 /// LOC100996395 / RFU, ING1 / Fold change vs veh, ING1 / RFU, TRMT61B / Fold change vs veh, TRMT61B / RFU, FUBP3 / Fold change vs veh, FUBP3 / RFU, TP53 / Fold change vs veh, TP53 / RFU, TNKS2 / Fold change vs veh, TNKS2 / RFU, ZFP14 / Fold change vs veh, ZFP14 / RFU, ACTR2 / Fold change vs veh, ACTR2 / RFU, PPP3R1 / Fold change vs veh, PPP3R1 / RFU, PIK3R1 / Fold change vs veh, PIK3R1 / RFU, HNRNPA1 / Fold change vs veh, HNRNPA1 / RFU, RNF170 / Fold change vs veh, RNF170 / RFU, ZNF28 / Fold change vs veh, ZNF28 / RFU, RNGTT / Fold change vs veh, RNGTT / RFU, OGT / Fold change vs veh, OGT / RFU, BRD1 / Fold change vs veh, BRD1 / RFU, MARS / Fold change vs veh, MARS / RFU, ZNF655 / Fold change vs veh, ZNF655 / RFU, FAHD1 / Fold change vs veh, FAHD1 / RFU, BDP1 / Fold change vs veh, BDP1 / RFU, LRRCC1 / Fold change vs veh, LRRCC1 / RFU, ARID1A / Fold change vs veh, ARID1A / RFU, ZNF146 / Fold change vs veh, ZNF146 / RFU, ZNF330 / Fold change vs veh, ZNF330 / RFU, GPN3 / Fold change vs veh, GPN3 / RFU, C9orf123 / Fold change vs veh, C9orf123 / RFU, N4BP2L2 / Fold change vs veh, N4BP2L2 / RFU, ARFIP1 / Fold change vs veh, ARFIP1 / RFU, FAM179B / Fold change vs veh, FAM179B / RFU, BCL10 / Fold change vs veh, BCL10 / RFU, UHRF1BP1L / Fold change vs veh, UHRF1BP1L / RFU, BET1 / Fold change vs veh, BET1 / RFU, CNOT2 / Fold change vs veh, CNOT2 / RFU, ZNF268 / Fold change vs veh, ZNF268 / Fold change vs veh, ZNF507 / RFU, DGCR2 / Fold change vs veh, DGCR2 / RFU, WDSUB1 / Fold change vs veh, WDSUB1 / Fold change vs veh, HSP90B1 /// MIR3652 / RFU, ADSS / Fold change vs veh, ADSS / RFU, GK / Fold change vs veh, GK / RFU, ZNF148 / Fold change vs veh, ZNF148 / RFU, TAF9 / Fold change vs veh, TAF9 / RFU, SLC1A5 / Fold change vs veh, SLC1A5 / RFU, SLMO2 / Fold change vs veh, SLMO2 / RFU, ABCC4 / Fold change vs veh, ABCC4 / RFU, LOC101060439 /// RAP1B / Fold change vs veh, LOC101060439 /// RAP1B / RFU, RFX7 / Fold change vs veh, RFX7 / RFU, GTPBP10 / Fold change vs veh, GTPBP10 / RFU, CNEP1R1 / Fold change vs veh, CNEP1R1 / RFU, BIVM-ERCC5 /// ERCC5 / Fold change vs veh, BIVM-ERCC5 /// ERCC5 / RFU, ILF3 / Fold change vs veh, ILF3 / RFU 11762660_at / Fold change /veh 11762660_at / RFU VCAN (11757783_s_at) / Fold change /veh VCAN (11757783_s_at) / RFU DDX43 (11728927_at) / Fold change /veh DDX43 (11728927_at) / RFU KRT8 (11758188_x_at) / Fold change /veh KRT8 (11758188_x_at) / RFU NKD1 (11759106_at) / Fold change /veh NKD1 (11759106_at) / RFU SRD5A1 (11742802_a_at) / Fold change /veh SRD5A1 (11742802_a_at) / RFU TPSAB1 /// TPSB2 (11721975_s_at) / Fold change /veh TPSAB1 /// TPSB2 (11721975_s_at) / RFU GSTM3 (11746129_a_at) / Fold change /veh GSTM3 (11746129_a_at) / RFU IL23R (11737362_x_at) / Fold change /veh IL23R (11737362_x_at) / RFU TMEM51 (11727254_a_at) / Fold change /veh TMEM51 (11727254_a_at) / RFU PIWIL2 (11732686_x_at) / Fold change /veh PIWIL2 (11732686_x_at) / RFU ORM1 (11744905_x_at) / Fold change /veh ORM1 (11744905_x_at) / RFU CCDC152 (11743942_at) / Fold change /veh CCDC152 (11743942_at) / RFU ECM1 (11717891_a_at) / Fold change /veh ECM1 (11717891_a_at) / RFU IL23R (11748794_a_at) / Fold change /veh IL23R (11748794_a_at) / RFU TNFAIP8L3 (11732012_x_at) / Fold change /veh TNFAIP8L3 (11732012_x_at) / RFU MBOAT4 (11741988_at) / Fold change /veh MBOAT4 (11741988_at) / RFU 11764193_at / Fold change /veh 11764193_at / RFU TMEM53 (11763286_at) / Fold change /veh TMEM53 (11763286_at) / RFU MAGEB2 (11727129_at) / Fold change /veh MAGEB2 (11727129_at) / RFU TMEM200A (11744735_a_at) / Fold change /veh TMEM200A (11744735_a_at) / RFU CCDC152 (11751479_a_at) / Fold change /veh CCDC152 (11751479_a_at) / RFU FAM211A (11726209_a_at) / Fold change /veh FAM211A (11726209_a_at) / RFU RGS16 (11746705_a_at) / Fold change /veh RGS16 (11746705_a_at) / RFU VCAN (11755009_s_at) / Fold change /veh VCAN (11755009_s_at) / RFU RHOB (11743442_s_at) / Fold change /veh RHOB (11743442_s_at) / RFU RGS16 (11720943_a_at) / Fold change /veh RGS16 (11720943_a_at) / RFU RGS16 (11720944_at) / Fold change /veh RGS16 (11720944_at) / RFU, VPS4B / Fold change vs veh, VPS4B / RFU, CREB1 / Fold change vs veh, CREB1 / RFU, DNAJC13 / Fold change vs veh, DNAJC13 / RFU, GNAQ / Fold change vs veh, GNAQ / RFU, CDK5R1 / Fold change vs veh, CDK5R1 / RFU, ZRANB3 / Fold change vs veh, ZRANB3 / RFU, CUL4A / Fold change vs veh, CUL4A / RFU, CCNY / Fold change vs veh, CCNY / RFU, UFL1 / Fold change vs veh, UFL1 / RFU, COG3 / Fold change vs veh, COG3 / RFU, DIAPH2 / Fold change vs veh, DIAPH2 / RFU, SKA2 / Fold change vs veh, SKA2 / RFU, AFF3 / Fold change vs veh, AFF3 / RFU, LMF1 / Fold change vs veh, LMF1 / RFU, IPO11 / Fold change vs veh, IPO11 / RFU, DFFB / Fold change vs veh, DFFB / RFU, FOXP1 / Fold change vs veh, FOXP1 / RFU, CARD8 / Fold change vs veh, CARD8 / RFU, STRN3 / Fold change vs veh, STRN3 / RFU, ADK / Fold change vs veh, ADK / RFU, RASSF2 / Fold change vs veh, RASSF2 / RFU, WIPF1 / Fold change vs veh, WIPF1 / RFU, LARP1B / Fold change vs veh, LARP1B / RFU, RASA1 / Fold change vs veh, RASA1 / RFU, RB1 / Fold change vs veh, RB1 / RFU, PPFIA1 / Fold change vs veh, PPFIA1 / RFU, MAT2A / Fold change vs veh, MAT2A / RFU, CCT5 / Fold change vs veh, CCT5 / RFU, WDR92 / Fold change vs veh, WDR92 / RFU, CUX1 / Fold change vs veh, CUX1 / RFU, TTC7A / Fold change vs veh, TTC7A / RFU, TMEM135 / Fold change vs veh, TMEM135 / RFU, DEPTOR / Fold change vs veh, DEPTOR / RFU, CPM / Fold change vs veh, CPM / RFU, DNAJB6 / Fold change vs veh, DNAJB6 / RFU, CACNA2D3 / Fold change vs veh, CACNA2D3 / RFU, DTX4 / Fold change vs veh, DTX4 / RFU, TFCP2 / Fold change vs veh, TFCP2 / RFU, GMCL1 /// GMCL1P1 / Fold change vs veh, GMCL1 /// GMCL1P1 / RFU, AEBP2 / Fold change vs veh, AEBP2 / RFU, SNHG1 /// SNORD22 /// SNORD25 /// SNORD26 /// SNORD27 /// SNORD28 /// SNORD29 /// SNORD31 / Fold change vs veh, SNHG1 /// SNORD22 /// SNORD25 /// SNORD26 /// SNORD27 /// SNORD28 /// SNORD29 /// SNORD31 / Fold change (Aza/veh), C12orf56 (ProbeSet 11735607_a_at) / Fold change (ACY-1035/veh), C12orf56 (ProbeSet 11735607_a_at) / Fold change (Aza/veh), FGFR1OP (ProbeSet 11751329_s_at) / Fold change (ACY-1035/veh), FGFR1OP (ProbeSet 11751329_s_at) / Fold change (Aza/veh), VPS36 (ProbeSet 11739960_a_at) / Fold change (ACY-1035/veh), VPS36 (ProbeSet 11739960_a_at) / RFU SYPL1 (11715823_x_at) / Fold change /veh SYPL1 (11715823_x_at) / RFU IGFBP7 (11715501_s_at) / Fold change /veh IGFBP7 (11715501_s_at) / RFU REEP3 (11722064_at) / Fold change /veh REEP3 (11722064_at) / RFU IGLL1 (11728026_x_at) / Fold change /veh IGLL1 (11728026_x_at): dose or concentration left out as unconfirmed. The conditions noted are these: ProbeSet 11728676_at; LIST B.

Consider `Nc1ccc(-c2cccs2)cc1NC(=O)c1ccc2c(c1)cc(C1CC1)n2CCN1CCOCC1` [ACY-1035], for which the “Fold change vs veh, MED14” value was found to be 0.95.
